Measured values reported in US11203601B2, “Tricyclic compounds as glycogen synthase kinase 3 (GSK3) inhibitors and uses thereof” (The Broad Institute, Inc., priority 2017, dated 2021).

What was measured:
[1] = target: T1, GSK3β (Homo sapiens (Human), UniProt P49841); assay: Mobility shift microfluidics assay; format: biochemical; conditions: 4.3 μM ATP, 60 minutes at room temperature
Method: (§6) Reactions were terminated by the addition of 10 mM ethylenediaminetetraacetic acid (EDTA). Substrate and product were separated electrophoretically, and fluorescence intensity of the substrate and product was determined by Labchip EZ Reader II (Caliper Life Sciences). The kinase activity was measured as percent conversion. The reactions were performed in duplicate for each sample. […] The results were analyzed by Genedata Assay Analyzer. The percent inhibition was plotted against the compound concentration, and the IC50 value was determined from the logistic dose-response curve fitting. Values are the average of at least three experiments.

[2] = target: T2, GSK3α (Homo sapiens (Human), UniProt P49840); assay: Mobility shift microfluidics assay; format: biochemical
Method: as §6

[3] = target: T1, GSK3β; assay: GSK3 beta biochemical assay (TR-FRET)
Method: (§7) 1 nM enzyme, 200 nM biotinylated peptide
(§8) 4 μM ATP (GSK3 alpha) or 2 μM ATP (GSK3 beta)
(§9) The reaction volume is 10 μL, and the final percent DMSO is 1%. The total volume of DMSO is therefore 100 nL. It is critical that the percentage of DMSO be controlled and consistent across the plate. […] The High control is with all assay components but no inhibitor, the low control is with all assay components but no enzyme.
(§10) Make 2× detection reagents in Invitrogen TR-FRET detection buffer for final 20 nM Strepavidin-d2, 1 nM Tb^2+-pSer641 antibody (using 20 μl as final volume). 2× detection=40 nM Strepavidin-d2, 2 nM Tb^2+-pSer641 antibody.
(§11) XLFit is used for results which are archived into a database. The data is normalized as a percentage of uninhibited control minus max inhibited controls.

[4] = target: T2, GSK3α; assay: GSK3 alpha biochemical assay (TR-FRET)
Method: as §7, §8, §9, §10, §11

[5] = Liver microsomal stability, human; format: in vitro ADME; conditions: 1 μM, 60 minutes at 37° C.
Method: (§1) Stability of compound in liver microsomes was tested in duplicate by incubating compound at 1 μM for 60 minutes at 37° C. Compound level at 60 minutes was compared to level at 0 minutes, and percent remaining was calculated. Order by selecting Microsomal Stability in Prometheus, checking boxes for desired species.
(§2) Available species: human, mouse (CD-1), and rat (Sprague-Dawley). Compound requirements: 5 μL of a 10 mM DMSO solution. Incubation time: 60 minutes at 37° C. Test Concentration: 1 μM.
(§3) Microsomes with NADPH without compound-matrix interference. Microsomes plus compound without NADPH-non-enzymatic instability.

[6] = Solubility in PBS; conditions: 23 °C, aqueous buffer, thermodynamic from solid
Method: Solubility of compound was tested in triplicate by diluting a 10 mM DMSO solution with PBS. Maximum concentration of compound in solution was 100 μM.
Solubility of compound was tested in triplicate by drying down a 10 mM DMSO solution and then attempting to reconstitute in 100% PBS. Maximum concentration of compound in solution was 500 μM.
Compound requirements (1% DMSO in PBS): 30 μL of a 10 mM DMSO solution. Compound requirements (PBS-only): 60 μL of a 10 mM DMSO solution. Equilibration time: 18 hours at room temperature.

[7] = Plasma stability, human; format: in vitro ADME; conditions: human plasma, 5 μM, 5 hours at 37° C.
Method: (§4) Stability of compound in plasma was tested in duplicate by incubating compound at 5 μM for 5 hours at 37° C. Compound level at 5 hours was compared to level at 0 hours, and percent remaining was calculated. Binding to plasma proteins was tested in duplicate by incubating compound in plasma at 5 μM for 5 hours at 37° C. in the Rapid Equilibrium Dialysis (RED) Device. Compound level in plasma compartment was compared to compound level in buffer compartment to calculate percent bound. Order by selecting Plasma Stability and Plasma Protein Binding in Prometheus, checking boxes for desired species.
(§5) Available species: human, mouse (CD-1), and rat (Sprague-Dawley). Compound requirements: 15 μL of a 10 mM DMSO solution. Incubation time: 5 hours at 37° C. Test Concentration: 5 μM.

[8] = Liver microsomal stability, mouse; format: in vitro ADME, mouse (CD-1); conditions: 1 μM, 60 minutes at 37° C.
Method: as §1, §2, §3

[9] = Plasma stability, mouse; format: in vitro ADME, mouse (CD-1)
Method: as §4, §5

[10] = system: MDR1; assay: MDR1/MDCK assay (Example 4); format: in vitro ADME; conditions: dog, MDCK-MDR1; for Papp A→B at 120 min, 5 μM / Papp B→A at 120 min, 5 μM: pH 7.4, 120 minutes; for efflux ratio at 120 min, 5 μM: (Papp B to A)/(Papp A to B)
Method: The MDR1/MDCK assay is run at Absorption Systems. This assay is used to determine the blood-brain barrier (BBB) penetration potential of a test compound using MDR1-MDCK cell monolayers. Catalog number EA203.
Substrate • Test compound at 5 μM in HBSSg with maximum DMSO concentration not greater than 1%. Assay System • Confluent monolayers of MDR1-MDCK cells, 7 to 11 days old. Assay Conditions • Receiver well with 1% BSA in modified Hanks buffer (HBSSg) • Apical and basolateral side at pH 7.4 • Dose two monolayers in each direction (N=2) • Dose apical side for (A to B) assessment • Dose basolateral side for (B to A) assessment • Sample both apical and basolateral sides at 120 minutes • Determine the concentrations of test compound using a generic LC-MS/MS method with a minimum 4 point calibration curve. Assay QC • The quality of the cell monolayer batch is verified using control compounds before monolayers are released for use • The quality of each monolayer used in the assay is verified by a TEER measurement and by calculating the Papp for a control compound. Solubility (SOL) 1% DMSO in PBS

[11] = GSK3β TR-FRET BIOCHEMICAL (TR-FRET) GMean IC50, 2 μM ATP (Km), 100 min at room temperature
[12] = GSK3α TR-FRET BIOCHEMICAL (TR-FRET) GMean IC50, 4 μM ATP (Km), 100 min at room temperature

T2 sequence (P49840 whole entry): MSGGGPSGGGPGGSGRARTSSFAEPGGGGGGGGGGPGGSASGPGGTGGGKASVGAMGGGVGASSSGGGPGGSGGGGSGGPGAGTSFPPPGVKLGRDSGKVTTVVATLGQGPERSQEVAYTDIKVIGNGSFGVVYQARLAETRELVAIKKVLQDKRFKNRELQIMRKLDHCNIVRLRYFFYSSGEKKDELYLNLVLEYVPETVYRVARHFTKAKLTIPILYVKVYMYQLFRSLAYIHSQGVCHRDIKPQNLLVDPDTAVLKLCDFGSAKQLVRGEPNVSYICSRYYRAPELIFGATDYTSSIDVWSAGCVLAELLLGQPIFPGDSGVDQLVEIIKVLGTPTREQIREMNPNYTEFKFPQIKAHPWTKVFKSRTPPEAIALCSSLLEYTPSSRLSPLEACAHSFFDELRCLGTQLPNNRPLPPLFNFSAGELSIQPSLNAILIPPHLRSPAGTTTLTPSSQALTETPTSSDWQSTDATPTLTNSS
T1 sequence (P49841 whole entry): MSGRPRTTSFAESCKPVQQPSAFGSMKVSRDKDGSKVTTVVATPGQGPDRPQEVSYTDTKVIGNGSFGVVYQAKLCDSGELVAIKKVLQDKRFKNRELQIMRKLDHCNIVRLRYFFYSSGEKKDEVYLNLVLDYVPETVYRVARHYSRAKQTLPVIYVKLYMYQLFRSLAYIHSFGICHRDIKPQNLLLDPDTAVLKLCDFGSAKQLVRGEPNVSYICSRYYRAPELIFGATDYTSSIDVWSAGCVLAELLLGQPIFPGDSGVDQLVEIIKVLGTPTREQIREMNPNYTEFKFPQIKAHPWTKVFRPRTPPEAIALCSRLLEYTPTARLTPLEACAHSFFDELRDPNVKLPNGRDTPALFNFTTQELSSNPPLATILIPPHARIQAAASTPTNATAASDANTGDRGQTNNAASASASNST

Row | SMILES | IC50 [1] | IC50 [2] | IC50 [3] | IC50 [4] | also measured
1 | CC1(C)CC(=O)C2=C(C1)Nc1ncsc1[C@@]2(C)c1ccccc1 | 28600 nM | 18500 nM | – | – | –
2 | CC1(C)CC(=O)C2=C(C1)Nc1ncsc1[C@]2(C)c1cccc(F)c1 | 455 nM | 203 nM | – | – | –
3 | CC1(C)CC(=O)C2=C(C1)Nc1ncsc1[C@@]2(C)c1cccc(F)c1 | 12500 nM | 6230 nM | – | – | –
4 | CC[C@]1(c2ccccc2)C2=C(CC(C)(C)CC2=O)Nc2ncsc21 | > 30000 nM | > 30000 nM | – | – | –
5 | CC[C@]1(c2cccc(OC)c2)C2=C(CC(C)(C)CC2=O)Nc2ncsc21 | 10500 nM | 10600 nM | – | – | –
6 | CC[C@@]1(c2ccccc2)C2=C(CC3(CCCCC3)CC2=O)Nc2ncsc21 | 447 nM | 155 nM | – | – | –
7 | CC[C@]1(c2ccccc2)C2=C(CC3(CCCCC3)CC2=O)Nc2ncsc21 | 1890 nM | 3660 nM | – | – | –
8 | CC[C@]1(c2cccc(F)c2)C2=C(CC(C)(C)CC2=O)Nc2ncsc21 (single isomer, unassigned) | > 30000 nM | > 30000 nM | – | – | –
9 | CC[C@@]1(c2cccc(Cl)c2)C2=C(CC(C)(C)CC2=O)Nc2ncsc21 (single isomer, unassigned) | 1180 nM | 293 nM | – | – | –
10 | CC[C@]1(c2cccc(Cl)c2)C2=C(CC(C)(C)CC2=O)Nc2ncsc21 (single isomer, unassigned) | > 30000 nM | > 30000 nM | – | – | –
11 | CC[C@@]1(c2cccc(OC)c2)C2=C(CC(C)(C)CC2=O)Nc2ncsc21 (single isomer, unassigned) | 110 nM | 24 nM | – | – | –
12 | CCC1(c2ccccc2)C2=C(CC(C)(C)CC2=O)Nc2ncsc21 (single isomer, unassigned) [Compound 1-E1, 9-Ethyl-6,6-dimethyl-9-phenyl-5,6,7,9-tetrahydrothiazolo[4,5-b]quinolin-8(4H)-one] | – | – | – | – | IC50 [3, 11]: > 5000 nM; IC50 [4, 12]: > 5000 nM
13 | CCC1(c2ccccc2)C2=C(Nc3ncsc31)C(C)CC(C)C2=O (stereo not drawn) [Compound 2] | – | – | 353 nM | 130 nM | –
14 | CCC1(c2ccccc2)C2=C(CCC(C)(C)C2=O)Nc2ncsc21 (stereo not drawn) [Compound 3] | – | – | 951 nM | 254 nM | –
15 | CCC1(c2ccccc2)C2=C(Nc3ncsc31)C(C)(C)CCC2=O (stereo not drawn) [Compound 4] | – | – | 627 nM | 174 nM | –
16 | CCC1(c2ccccc2)C2=C(CC3(CCCC3)CC2=O)Nc2ncsc21 (stereo not drawn) [Compound 5] | – | – | 366 nM | 80 nM | –
17 | CCC1(c2ccccc2)C2=C(CC(C)CC2=O)Nc2ncsc21 (stereo not drawn) [Compound 6] | – | – | 684 nM | 194 nM | –
18 | CCC1CC(=O)C2=C(C1)Nc1ncsc1C2(CC)c1ccccc1 (stereo not drawn) [Compound 7] | – | – | 592 nM | 171 nM | –
19 | CCC1(c2ccccc2)C2=C(CC(C(C)C)CC2=O)Nc2ncsc21 (stereo not drawn) [Compound 8] | – | – | 927 nM | 365 nM | –
20 | CCCC1CC(=O)C2=C(C1)Nc1ncsc1C2(CC)c1ccccc1 (stereo not drawn) [Compound 9] | – | – | 418 nM | 184 nM | –

Row | SMILES | IC50 [1] | IC50 [2] | IC50 [3] | IC50 [4] | also measured
21 | CCC1(c2ccccc2)C2=C(CC(CC(C)C)CC2=O)Nc2ncsc21 (stereo not drawn) [Compound 10] | – | – | 644 nM | 189 nM | –
22 | CCC1(c2ccccc2)C2=C(CCCC2=O)Nc2ncsc21 (stereo not drawn) [Compound 11] | – | – | > 1670 nM | 419 nM | –
23 | CCC1(c2ccc(C)cc2)C2=C(CC(C)(C)CC2=O)Nc2ncsc21 (stereo not drawn) [Compound 13] | – | – | 619 nM | 187 nM | –
24 | CCC1(c2cccc(Br)c2)C2=C(CC(C)(C)CC2=O)Nc2ncsc21 (stereo not drawn) [Compound 14] | – | – | 234 nM | 41 nM | –
25 | CCC1(c2ccccc2)C2=C(CC(C)(C)CC2=O)Nc2nc(C)sc21 (stereo not drawn) [Compound 15] | – | – | > 5000 nM | > 5000 nM | –
26 | CC1(C)CC(=O)C2=C(C1)Nc1ncsc1C21CCCc2ccccc21 (stereo not drawn) [Compound 16] | – | – | > 5000 nM | > 5000 nM | –
27 | CC1(C)CC(=O)C2=C(C1)Nc1ncsc1C21CCCCc2ccccc21 (stereo not drawn) [Compound 17] | – | – | > 5000 nM | > 5000 nM | –
28 | [2H]c1nc2c(s1)C(CC)(c1ccccc1)C1=C(CC(C)(C)CC1=O)N2 (stereo not drawn) [Compound 18] | – | – | – | – | IC50 [3, 11]: 500 nM; IC50 [4, 12]: 118 nM
29 | CCC1(c2ccccc2)C2=C(CC(C)(C)CC2=O)Nc2nc(Cl)sc21 (stereo not drawn) [Compound 19] | – | – | 4350 nM | 1990 nM | –
30 | CC1(C)CC(=O)C2=C(C1)Nc1ncsc1[C@]2(C)c1ccccc1 [drawing 153] | 384 nM | 238 nM | – | – | –
31 | CC[C@@]1(c2ccccc2)C2=C(CC(C)(C)CC2=O)Nc2ncsc21 [drawing 157] | 65 nM | 14 nM | – | – | –
32 | CC[C@@]1(c2cccc(F)c2)C2=C(CC(C)(C)CC2=O)Nc2ncsc21 [drawing 159] | 2270 nM | 599 nM | – | – | –
33 | CC[C@@]1(c2cccc(C)c2)C2=C(CC(C)(C)CC2=O)Nc2ncsc21 [drawing 163] | 245 nM | 69 nM | – | – | –
34 | CC[C@@]1(c2ccccc2)C2=C(CC(C)(C)CC2=O)Nc2n[nH]cc21 [drawing 170] | 507 nM | – | – | – | –
35 | CC1(C)CC(=O)C2=C(C1)Nc1n[nH]cc1[C@]2(C)c1ccccc1 [drawing 178] | – | – | – | – | Human Liver Microsomal Stability, % remaining [5]: 100%; solubility thermodynamic at 18 h [6]: > 500 µM; Plasma Stability (Human, % remaining) [7]: 100%; Mouse Liver Microsomal Stability, % remaining [8]: 100%; Plasma Stability (Mouse, % remaining) [9]: 96.6%
36 | CC1(C)CC(=O)C2=C(C1)Nc1ncsc1[C@]2(C)c1ccccc1 [drawing 181] | – | – | – | – | Papp A→B at 120 min, 5 μM [10]: 28.4 ×10⁻⁶ cm/s; Papp B→A at 120 min, 5 μM [10]: 62.8 ×10⁻⁶ cm/s; efflux ratio at 120 min, 5 μM [10]: 2.2
37 | CC[C@@]1(c2ccccc2)C2=C(CC(C)(C)CC2=O)Nc2ncsc21 [drawing 182] | – | – | – | – | Papp A→B at 120 min, 5 μM [10]: 24.2 ×10⁻⁶ cm/s; Papp B→A at 120 min, 5 μM [10]: 62.1 ×10⁻⁶ cm/s; efflux ratio at 120 min, 5 μM [10]: 2.6
38 | CC1(C)CC(=O)C2=C(C1)Nc1n[nH]cc1[C@]2(C)c1ccccc1 [drawing 183] | – | – | – | – | Papp A→B at 120 min, 5 μM [10]: 1.82 ×10⁻⁶ cm/s; Papp B→A at 120 min, 5 μM [10]: 66.1 ×10⁻⁶ cm/s
39 | CC[C@@]1(c2ccccc2)C2=C(CC(C)(C)CC2=O)Nc2n[nH]cc21 [drawing 184] | – | – | – | – | Papp A→B at 120 min, 5 μM [10]: 1.26 ×10⁻⁶ cm/s; Papp B→A at 120 min, 5 μM [10]: 57.7 ×10⁻⁶ cm/s
40 | Cc1c[nH]c(-c2cnc(NCCNc3ccc(C#N)cn3)nc2-c2ccc(Cl)cc2Cl)n1 [drawing 185] | – | – | – | – | Papp A→B at 120 min, 5 μM [10]: 6.5 ×10⁻⁶ cm/s; Papp B→A at 120 min, 5 μM [10]: 64.2 ×10⁻⁶ cm/s
